Target: T1, IL-17A/A (Homo sapiens, UniProt Q16552)
T1 construct: purchased Genscript Z03228
T1 sequence (Q16552 24-155): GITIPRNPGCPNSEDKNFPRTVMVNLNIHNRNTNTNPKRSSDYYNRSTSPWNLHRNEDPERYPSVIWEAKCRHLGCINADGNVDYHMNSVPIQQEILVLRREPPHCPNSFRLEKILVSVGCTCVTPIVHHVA
Experiment: IL-17A/A HEK-Blue Cell Assay
Format: cell-based
Details: HEK-Blue IL-17A reporter cell line, SEAP readout at A630, 20 hours incubation with IL-17A/A, top concentration 10 uM, 1 uM or 0.3 uM; for IC50: read-out: IL-17A/A inhibition (pIC50) (converted)

IC50	Structure (SMILES)	IL-17A/A inhibition (pIC50)
100 to 10000 nM	CCn1nccc1C(=O)N[C@H](C(=O)Nc1ccc([C@H](C)[C@@H](NC(=O)c2cc(C)no2)C(=O)N2CCN(C)CC2)cc1F)C1CCCCC1 [Compound 656]	–
10 to 100 nM	CCc1nonc1C(=O)N[C@H](C(=O)Nc1ccc([C@H](C)C(NC(=O)C(C)F)C(=O)N2CCN(C)[C@H](C)C2)cc1F)[C@H]1CC[C@H](C)CC1 (single isomer, unassigned) [Compound 598]	–
100 to 10000 nM	CCC(=O)N[C@H](Cc1ccc(NC(=O)[C@@H](NC(=O)c2ccnn2CC)C2CCC(F)(F)CC2)c(F)c1)C(=O)N1CCN(C)CC1 [Compound 689]	–
< 10 nM	CCC(=O)N[C@@H](C(=O)N1CCN(C)CC1(C)C)[C@@H](C)c1ccc(NC(=O)[C@@H](NC(=O)c2ccnn2CC)[C@H]2CC[C@H](C)CC2)c(F)c1 [Compound 431]	–
< 10 nM	CCC(=O)N[C@@H](C(=O)N1CCN(C)[C@@H](C)C1)[C@@H](C)c1ccc(NC(=O)[C@@H](NC(=O)c2nonc2CC)[C@H]2CC[C@H](C)CC2)c(F)c1 [Compound 460]	–
10 to 100 nM	CCC(=O)N[C@@H](C(=O)N1CCN(C)CC1)[C@@H](C)c1ccc(NC(=O)[C@@H](NC(=O)C(F)(F)c2cccc(C#N)c2)C2CCCCC2)cc1 [Compound 300]	–
100 to 10000 nM	CCn1nccc1C(=O)N[C@H](C(=O)Nc1ccc([C@H](C)[C@@H](NC(=O)c2cc(C)on2)C(=O)N2CCN(C)CC2)cc1F)C1CCCCC1 [Compound 687]	–
–	CCC(=O)N[C@@H](C(=O)N1CCN(C)CC1)[C@@H](C)c1ccc(NC(=O)[C@@H](NC(=O)c2ccnn2CC)C2CCOCC2)c(F)c1 [Compound 747]	X2b (compounds were evaluated up to 1 uM and inhibited activity at 1 uM by less than 20%)
10 to 100 nM	CCn1nccc1C(=O)N[C@H](C(=O)Nc1ccc([C@H](C)[C@@H](NC(=O)c2cnns2)C(=O)N2CCN(C)CC2)cc1F)[C@H]1CC[C@H](C)CC1 [Compound 388]	–
–	CCC(=O)N[C@H](Cc1ccc(NC(=O)[C@@H](NC(=O)c2ccnn2CC)C2CCCCC2)c(F)c1)C(=O)N1CCC(N(C)C)CC1 [Compound 748]	X2a (compounds were evaluated up to 1 uM and did not inhibit activity by >80%, however they showed some activity at 1 uM (less than 80% and more than 20%))
< 10 nM	CCC(=O)N[C@@H](C(=O)N1CCN(Cc2ccccc2)CC1)[C@@H](C)c1ccc(NC(=O)[C@@H](NC(=O)c2ccnn2CC)C2CCCCC2)c(F)c1 [Compound 366]	–
10 to 100 nM	CCn1nccc1C(=O)N[C@H](C(=O)Nc1ccc(C[C@@H](NC(=O)c2cnns2)C(=O)N2CCN(C)CC2)cc1F)C1CCCCC1 [Compound 322]	–
10 to 100 nM	CCn1nccc1C(=O)N[C@H](C(=O)Nc1ccc([C@H](C)[C@@H](NC(=O)c2cnns2)C(=O)N2CCOCC2)cc1F)[C@H]1CC[C@H](C)CC1 [Compound 381]	–
10 to 100 nM	CCc1nonc1C(=O)N[C@H](C(=O)Nc1ccc([C@H](C)[C@@H](NC(=O)c2ccnc3c2OCCO3)C(=O)N2CCN(C)CC2)cc1F)[C@H]1CC[C@H](C)CC1 [Compound 579]	–
–	CCC(=O)N[C@H](Cc1ccc(NC(=O)[C@@H](NC(=O)Cc2ccc(=O)[nH]c2)C2CCCCC2)c(F)c1)C(=O)N1CCN(C)CC1 [Compound 778]	X1b (compounds were evaluated up to 10 uM and inhibited activity at 10 uM by less than 20%)
< 10 nM	CCC(=O)N[C@@H](C(=O)N1C[C@H](C)N(C(=O)CC)[C@@H](C)C1)[C@@H](C)c1ccc(NC(=O)[C@@H](NC(=O)c2nonc2CC)[C@H]2CC[C@H](C)CC2)c(F)c1 [Compound 448]	–
100 to 10000 nM	CCC(=O)N[C@@H](C(=O)N1CCN(C)CC1)[C@@H](C)c1ccc(NC(=O)[C@@H](NC(=O)c2ccnn2CC)C2CCCCC2)cc1 [Compound 639]	–
10 to 100 nM	CCC(=O)N[C@@H](C(=O)N1CCN(C)CC1)[C@@H](C)c1ccc(NC(=O)C(NC(=O)C(F)(F)C2CCCCC2)[C@H]2CC[C@H](C)CC2)c(F)c1 (stereo partly shown) [Compound 419]	–
100 to 10000 nM	CCn1nccc1C(=O)N[C@H](C(=O)Nc1ccc([C@H](C)[C@@H](NC(=O)NC2CCC2)C(=O)N2CCN(C)CC2)cc1F)C1CCCCC1 [Compound 628]	–
